Data from US20250207127A1, “PHYTOECDYSONES AND/OR 20-HYDROXYECDYSONE DERIVATIVES IN COMBINATION WITH AN ACTIVE INGREDIENT FOR RESTORING SMN EXPRESSION, FOR USE IN THE TREATMENT OF SPINAL MUSCULAR ATROPHY” (BIOPHYTIS, priority 2021, published 2025).
Strand notation (5' to 3'): a small letter for the sugar, then the base; units joined by * are phosphorothioate-linked, units joined directly phosphodiester-linked; [ ] holds rarer units or linkages, { } end groups; capitals alone tell only the bases. e = 2'-O-(2-methoxyethyl) (MOE); [5mC] = 5-methylcytosine

Key:
Format in all cases: in vivo, mouse
[1] = system: SMA mice (Smn^Δ7/Δ7; huSMN2^+/−); assay: Weight evolution of severe SMA mice treated from P0; conditions: relative to mismatch ASO
Text: (§1) The antisense oligonucleotide (ASO) of sequence SEQ ID NO: 23 (5′-TCACTTTCATAATGCTGG-3′), of reference ISIS 396443, also known under the name ISIS-SMNRx, and called in the remainder of the description ASO 10-27, complementary to 18 bases (bases 10 to 27) of intron 7 of the SMN2 gene (targeting a site in intron 7, called ISS-N1, which represses the inclusion of exon 7 of the pre-messenger RNA (pre-mRNA) of the SMN2 gene) having modified nucleotides 2′-O-methoxyethyl on the 2′ carbon atom of deoxyribose for each base, with a phosphorothioate backbone and 5-methyl cytosines and the control ASO (denoted mismatch) of sequence SEQ ID NO°: 24 (5′-TTAGTTTAATCACGCTCG-3′) (Singh et al. 2006; Williams et al. 2009), were synthesised and purified as previously described (Baker et al. 1997, Hua et al. 2008; Passini et al., 2011). The oligonucleotides are resuspended at a concentration of 8 μg/μL in 0.9% NaCl and stored at −20° C.
(§2) On the day of injection, the ASO stock solution is diluted to the concentration of 2 μg/μL in 0.9% NaCl. Methylene blue 0.04% is added to the solution as an injection control. Newborn SMA mice receive a single dose of ASO 10-27 or ASO mismatch of 8 μg on the 1st post-natal day (PO) by unilateral intra-cerebro-ventricular injection using a Hamilton syringe and a 32G needle. The injection site is located 1 mm from the sagittal suture, between bregma and lambda, landmarks visible through the skin at PO. The needle is positioned perpendicular to the injection site on the surface of the skin and inserted approximately 3 mm deep to reach the lateral ventricle.
(§3) The complementary treatment BIO101 complexed with cyclodextrin is administered daily to the mice from the first post-natal day (PO) orally at a dose of 50 mg/kg using a pipette.
(§4) A severe SMA mouse model was used on a FVB/NRj genetic background, characterised by the invalidation of exon 7 of the murine Smn gene and expressing two copies of the human SMN2 transgene (Smn^Δ7/Δ7; huSMN2−/+) (Hsieh et al., 2000). The mice resulting from these crosses having the genotype “FVB/NRj-Smn^Δ7/Δ7 huSMN2−/+2 copies” are described as “SMA” (Hsieh et al., 2000). SMA mice were treated with either BIO101 alone or a mismatch ASO or an ASO 10-27 alone, or with an ASO 10-27+BIO101 combined treatment starting from PO. Survival (FIG. 1) and weight

[2] = system: SMA mice (Smn^Δ7/Δ7; huSMN2^+/−); assay: Grip-test (muscle fatigability) of SMA mice; conditions: relative to mismatch ASO
Method: as §2, §3
(§5) We performed phenotypic analyses of severe SMA type 2 mice treated with BIO101 alone or a mismatch ASO or ASO 10-27 alone, or with an ASO 10-27+BIO101 combined treatment from PO. […] We, on the one hand, evaluated the movement capacities by the open-field test (FIG. 3), as well as the muscular fatigability by grip-test (FIG. 4), as previously described (Biondi et al., 2008; Branchu et al., 2013; Chali et al., 2016).
In order to assess the muscle fatigability, the grip strength of the mice's forelimbs was tested. […] The time spent hanging on is recorded. […]

[3] = system: SMA mice (Smn^Δ7/Δ7; huSMN2^+/−); assay: Open-field test (movement capacities) of SMA mice; conditions: at P15, 5 minutes, mean±SEM
Method: as §2, with “ventricle. […]” for “ventricle.”
as §5
The device used for open-field testing consists of a plastic box measuring 28×28×5 cm with a field grid divided into 16 tiles measuring 7 cm×7 cm. […] The behavioural measurements were recorded by the experimenter during these 5 minutes and the total number of crossed tiles was recorded.

[4] = system: SMA mice (Smn^Δ7/Δ7; huSMN2^+/−); assay: Survival of severe SMA mice treated from P0
Text: as §1, §2, §3, §4

[5] = SMA mice, ASO 8 μg single ICV injection at P0, BIO101 50 mg/kg oral daily from P0

Substance | increase of average weight ([1]; at P7) | increase of average weight ([1]; at P8) [%] | increase of average weight ([1]; at P9) [%] | increase of average weight ([1]; at P10) [%] | improvement of resistance to fatigue (grip-test) ([2]; at P7) | improvement of resistance to fatigue (grip-test) ([2]; at P15) [%] | total number of crossed tiles (open field) [3] [tiles] | median survival [4, 5] [days] | improvement in animal survival ([4]; median survival compared to mismatch ASO control group) [%] | average lifespan of the mouse pups [4, 5] [days]
5′-TCACTTTCATAATGCTGG-3′ (antisense eT*e[5mC]*eA*e[5mC]*eT*eT*eT*e[5mC]*eA*eT*eA*eA*eT*eG*e[5mC]*eT*eG*eG) [ASO 10-27, antisense oligonucleotide complementary to bases 10 to 27 of intron 7 of the SMN2 gene] | does not increase | 9.9 | 13.9 | 16 | not improved | 7.7 | 70±20 | 18 | 38 | 
5′-TTAGTTTAATCACGCTCG-3′ (listed as DNA, chemistry not given here) [mismatch ASO, control ASO (denoted mismatch)] |  |  |  |  |  |  |  | 13 |  | 13
